Assay results from patent US20070077552A1, “High throughput screen for inhibitors of polypeptide aggregation” (priority 2005, published 2007).

Assays:
Aβ = conditions: cited from earlier work
Aβ42 = Aβ42 (Homo sapiens, UniProt P05067); conditions: shown previously (35, 36); cited from earlier work
[1] = molecular target: T1, Aβ42-linker-GFP fusion protein (Homo sapiens, UniProt P05067); assay: Cell-free Aβ42-linker-GFP fluorescence assay; assay type: biochemical; conditions: 10 μM, cell-free system
T1 construct: Wild-type Aβ42-linker-GFP was expressed in the absence (gray) or presence (black) of 10 μM tannic acid; host or cells: cell-free E. coli T7 S30 extract system for circular DNA
T1 sequence (P05067 with tags, fused parts or gaps): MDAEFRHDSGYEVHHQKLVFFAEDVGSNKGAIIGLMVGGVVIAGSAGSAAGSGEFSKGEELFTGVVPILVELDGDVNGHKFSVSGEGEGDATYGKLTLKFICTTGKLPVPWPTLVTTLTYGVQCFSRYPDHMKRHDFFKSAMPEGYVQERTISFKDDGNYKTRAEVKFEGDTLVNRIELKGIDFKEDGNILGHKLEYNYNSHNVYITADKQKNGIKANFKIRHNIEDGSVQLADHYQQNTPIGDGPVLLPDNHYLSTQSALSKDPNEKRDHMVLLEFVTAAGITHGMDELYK
Protocol: In one embodiment, the assay uses a vector encoding Aβ42-linker-GFP in a cell-free in vitro transcription and translation system. For example, the basic protocol of the cell-free assay can involve the following steps: 1) Culture 500 ml to 1L of E. coli X1Blue strain harboring Aβ-linker-GFP fusion vector until the density of the suspension reaches O.D 0.9; 2) At O.D 0.9, spin down the cells at 4,000 g for 15 min; 3) Extract the vector using the Qiagen plasmid mega kit. (Cat. No. 12183); 4) After extraction, remove contaminants using phenol extraction; 5) Add E. coli T7 S30 extract system for circular DNA (Promega, Cat. No. L1130) into each well of a 96-well plate; 6) Add control or test substances (e.g. putative drug molecules or vectors that express inhibitory polypeptide) to each well; 7) Add Aβ-linker-GFP fusion vector, and express at RT or at 37 ° C. for 3 hrs; and 8) Measure the fluorescence emission at 510 nm (using an excitation at 490 nm). One of skill in the art will recognize that other transcription/translation systems, or a modified system, can be used. Likewise, the details of the protocol can be varied and optimized to accommodate other amyloidogenic proteins, to enhance the relative fluorescence, to accommodate the needs of the assayist, or a combination thereof.
FIG. 8 illustrates the inhibition of fluorescence of Aβ42-linker-GFP in a cell free system. […]

Sequence of Aβ42 (P05067 672-713 limits assumed, species assumed): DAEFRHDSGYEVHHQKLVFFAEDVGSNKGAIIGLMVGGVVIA

fluorescence of wild-type Aβ42-linker-GFP / inhibition of aggregation [1] | Compound | Aβ oligomerization (Aβ) | long-term potentiation (Aβ) | inhibition of Aβ42 aggregation (Aβ42)
– | CCc1nc(Nc2cccc(O)c2)nc(Nc2cccc(O)c2)n1 [RS-0466] | block Aβ oligomerization | rescue long-term potentiation | –
– | NCCc1ccc(O)c(O)c1 [dopamine] | – | – | inhibit A42 aggregation
partially inhibits aggregation | O=C(OC[C@H]1O[C@@H](OC(=O)c2cc(O)c(O)c(OC(=O)c3cc(O)c(O)c(O)c3)c2)[C@H](OC(=O)c2cc(O)c(O)c(OC(=O)c3cc(O)c(O)c(O)c3)c2)[C@@H](OC(=O)c2cc(O)c(O)c(OC(=O)c3cc(O)c(O)c(O)c3)c2)[C@@H]1OC(=O)c1cc(O)c(O)c(OC(=O)c2cc(O)c(O)c(O)c2)c1)c1cc(O)c(O)c(OC(=O)c2cc(O)c(O)c(O)c2)c1 [tannic acid] | – | – | inhibit A42 aggregation
